The assay deals with Calcium-dependent protein kinase 1 (Plasmodium falciparum (isolate 3D7)) (UniProt P62344). Description: PfCDPK1 kinase inhibitors, biochemical, TCAMS library (AID 1159585).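 Also: inhibitors leave more ATP so luminescence rises with inhibition.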 Particulars: recombinant PfCDPK1, Kinase-Glo ATP depletion luminescence. Background: Kinase-Glo reads ATP consumption through a luciferase reaction.

What is called IC50 is the concentration needed to halve the response being measured.

Molecules are shown by their SMILES.

Sequence of Calcium-dependent protein kinase 1 (Plasmodium falciparum (isolate 3D7)) (P62344 whole entry, looked up): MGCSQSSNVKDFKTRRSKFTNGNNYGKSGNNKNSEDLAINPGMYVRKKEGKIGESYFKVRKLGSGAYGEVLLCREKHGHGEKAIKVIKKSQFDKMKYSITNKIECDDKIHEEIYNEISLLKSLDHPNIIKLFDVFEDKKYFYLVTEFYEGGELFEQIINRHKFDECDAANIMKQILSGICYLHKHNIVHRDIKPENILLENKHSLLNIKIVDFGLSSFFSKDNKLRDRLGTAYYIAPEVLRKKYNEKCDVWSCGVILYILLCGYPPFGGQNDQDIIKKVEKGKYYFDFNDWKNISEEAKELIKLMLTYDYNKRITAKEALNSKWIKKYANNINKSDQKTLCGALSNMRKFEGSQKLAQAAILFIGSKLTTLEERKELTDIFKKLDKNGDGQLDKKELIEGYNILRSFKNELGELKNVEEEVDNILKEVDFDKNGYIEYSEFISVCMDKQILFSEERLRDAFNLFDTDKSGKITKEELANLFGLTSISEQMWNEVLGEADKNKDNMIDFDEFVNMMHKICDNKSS

Turning to `Cn1cc(-c2ccnc3[nH]c(-c4cccc(CNC5CCC(O)CC5)c4)cc23)cn1` (stereo unspecified), the IC50 is 46 nM.
Next, `O=C(NCCCN1CCOCC1)c1cccc(Nc2nccc(Nc3ccc(Oc4ccccc4)cc3)n2)c1`: 180 nM; `CC(C)(CNCc1ccc(F)c(F)c1)c1nc(-c2ccc(Cl)c(O)c2)c(-c2ccncc2)[nH]1`: 451 nM.
For `Nc1ncc(-c2cn[nH]c2)cc1-c1nc2ccc(Cl)cc2[nH]1`, the IC50 is 834 nM.
For the compound `NCc1ccc(Nc2nccc(Nc3ccc(-c4ccccc4)cc3)n2)cc1`, the IC50 is 375 nM.
For `N#CCc1ccc(Nc2nccc(Nc3ccc(Oc4ccccc4)cc3)n2)cc1`, the concentration for half-maximal inhibition (IC50) is 798 nM.
Next, `O=C(NCCCN1CCCCC1)c1cccc(Nc2nccc(Nc3ccc(Oc4ccccc4)cc3)n2)c1`: 243 nM.
The value for `Cc1ccc(Nc2ccnc(Nc3ccc4c(c3)CS(=O)(=O)C4)n2)cc1O` was 416 nM.
The value for `CS(=O)(=O)Nc1cccc(-c2cnc3[nH]cc(-c4ccc(CN)cc4)c3c2)c1` was 552 nM.
Regarding `Clc1ccc(-c2cnc3ccc(NCCc4cccnc4)nn23)cc1`, the concentration for half-maximal inhibition (IC50) was 371 nM.
Consider `CC(C)(CN)c1nc(-c2ccc(Br)c(O)c2)c(-c2ccncc2)[nH]1`, for which the IC50 was 19 nM.
Next, `c1ccc(Oc2ccc(Nc3ccnc(Nc4ccc5cn[nH]c5c4)n3)cc2)cc1`: 765 nM.
The value for `CNC(=O)c1ccccc1Nc1nc(Nc2ccc(C(=O)O)cc2)ncc1Cl` was 246 nM; that for `COc1ccc(-c2cnc3ccc(NC4CCC(O)CC4)nn23)cn1` (stereo unspecified) was 379 nM.
Next, `O=C(Nc1cccc(-c2nn3ccccc3c2-c2ccnc(Nc3ccc(-c4ccn[nH]4)cc3)n2)c1)c1c(F)cccc1F`: 22 nM; `NCCCNc1nc(Nc2cccc(C(N)=O)c2)c2c(=O)[nH]ccc2n1`: 750 nM.

(Values after PubChem BioAssay AID1159585 (Gregory J. Crowther, 2016).)
